In the assay the target is Urease (Canavalia ensiformis, UniProt P07374). Kind of assay: Urease Inhibition Assay. The following applies: pH 8.2. The protocol: The urease inhibitory activity of synthesized sulfonamides (3a-j) was determined by measuring the amount of ammonia produced by the indophenols method described byWeatherburn (27,28). The reaction mixtures, comprising 20 µL of enzyme (Jack bean urease, 5 U/mL) and 20 µL of test compounds in 50 µL buffer (100 mM urea, 0.01 MK2HPO4, 1 mM EDTA and 0.01 M […], pH 8.2), were incubated for 10 min at 37 °C in 96-well plate. Briefly, 40 µL each of phenol reagents (1%, w/v phenol and0.005%, w/v sodium nitroprusside) and 70 µL of alkali reagent (0.5%, w/v NaOH and 0.1% active chloride NaOCl) were added to each well. […] All reactions were performed in triplicate.
Sequence of Urease (P07374 whole entry): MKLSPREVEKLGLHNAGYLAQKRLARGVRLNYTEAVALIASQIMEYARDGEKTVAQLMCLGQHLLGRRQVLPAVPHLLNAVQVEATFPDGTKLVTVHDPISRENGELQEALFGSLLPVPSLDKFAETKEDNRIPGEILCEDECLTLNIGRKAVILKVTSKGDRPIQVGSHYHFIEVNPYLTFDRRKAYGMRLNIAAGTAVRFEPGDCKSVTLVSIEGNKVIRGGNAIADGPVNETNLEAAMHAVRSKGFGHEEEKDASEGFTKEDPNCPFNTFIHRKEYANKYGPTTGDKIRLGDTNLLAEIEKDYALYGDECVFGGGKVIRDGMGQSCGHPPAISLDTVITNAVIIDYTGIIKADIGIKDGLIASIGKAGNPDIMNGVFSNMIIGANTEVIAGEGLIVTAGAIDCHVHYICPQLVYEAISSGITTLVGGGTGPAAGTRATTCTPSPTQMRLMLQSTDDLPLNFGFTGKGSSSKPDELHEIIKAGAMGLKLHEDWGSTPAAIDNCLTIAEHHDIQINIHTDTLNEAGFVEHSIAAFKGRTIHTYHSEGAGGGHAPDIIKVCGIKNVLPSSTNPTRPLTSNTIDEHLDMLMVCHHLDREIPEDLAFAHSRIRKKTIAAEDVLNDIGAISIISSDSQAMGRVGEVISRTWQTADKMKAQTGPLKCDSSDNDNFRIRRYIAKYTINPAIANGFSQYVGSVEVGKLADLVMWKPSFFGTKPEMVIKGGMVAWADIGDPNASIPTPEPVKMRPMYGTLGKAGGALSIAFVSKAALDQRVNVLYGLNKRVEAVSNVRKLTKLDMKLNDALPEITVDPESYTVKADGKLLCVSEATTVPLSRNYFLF
Take `Cc1cs/c(=N\C(=O)c2ccccc2[N+](=O)[O-])n1-c1ccc(S(N)(=O)=O)cc1` [(Z)-N-(3-(4-aminosulfonylphenyl)-4-methylthiazol-2(3H)-ylidene)-2-nitrobenzamide (3f)]: the IC50 was 350 nM.

As to `Cc1cs/c(=N\C(=O)c2ccc([N+](=O)[O-])cc2Cl)n1-c1ccc(S(N)(=O)=O)cc1` [(Z)-N-(3-(4-aminosulfonylphenyl)-4-methylthiazol-2(3H)-ylidene)-2-chloro-4-nitrobenzamide (3i)], the IC50 stood at 58 nM.

Compound `Cc1cs/c(=N\C(=O)c2ccc([N+](=O)[O-])cc2)n1-c1ccc(S(N)(=O)=O)cc1` [(Z)-N-(3-(4-aminosulfonylphenyl)-4-methylthiazol-2(3H)-ylidene)-4-nitrobenzamide (3e)] came in with an IC50 of 83 nM.

`COc1cccc(C(=O)/N=c2\scc(C)n2-c2ccc(S(N)(=O)=O)cc2)c1` [(Z)-N-(3-(4-aminosulfonylphenyl)-4-methylthiazol-2(3H)-ylidene)-3-methoxybenzamide (3g)]: the IC50 stood at 81 nM.

As to `Cc1cccc(C(=O)/N=c2\scc(C)n2-c2ccc(S(N)(=O)=O)cc2)c1` [(Z)-N-(3-(4-aminosulfonylphenyl)-4-methylthiazol-2(3H)-ylidene)-3-methylbenzamide (3c)], 87 nM corresponded to half-maximal inhibition (IC50).

Take `Cc1cs/c(=N\C(=O)c2ccco2)n1-c1ccc(S(N)(=O)=O)cc1` [(Z)-N-(3-(4-aminosulfonylphenyl)-4-methylthiazol-2(3H)-ylidene) furan-2-carboxamide (3j)]: it took 83 nM to reach half-maximal inhibition (IC50).

Regarding `Cc1cs/c(=N\C(=O)c2cccc(F)c2)n1-c1ccc(S(N)(=O)=O)cc1` [(Z)-N-(3-(4-aminosulfonylphenyl)-4-methylthiazol-2(3H)-ylidene)-3-fluorobenzamide (3h)], inhibition was half-maximal at 64 nM (IC50).

In turn, `Cc1ccc(C(=O)/N=c2\scc(C)n2-c2ccc(S(N)(=O)=O)cc2)cc1` [(Z)-N-(3-(4-aminosulfonylphenyl)-4-methylthiazol-2(3H)-ylidene)-4-methylbenzamide (3d)] had an IC50 of 72 nM.

For `Cc1ccccc1C(=O)/N=c1\scc(C)n1-c1ccc(S(N)(=O)=O)cc1` [(Z)-N-(3-(4-aminosulfonylphenyl)-4-methylthiazol-2(3H)-ylidene)-2-methylbenzamide (3b)], the IC50 is 87 nM.

Regarding `Cc1cs/c(=N\C(=O)c2ccccc2)n1-c1ccc(S(N)(=O)=O)cc1` [(Z)-N-(3-(4-aminosulfonylphenyl)-4-methylthiazol-2(3H)-ylidene) benzamide (3a)], the IC50 amounted to 96 nM.

Values taken from BindingDB's records for doi:10.1111/cbdd.12675 (Quaid-I-Azam University, 2016).
